# Laboratory results: PubChem BioAssay (NCI)
# “And” between values parts separate entries of the source, which are not always exact repeats. Identical values can stand only once.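 Compound exposure: 48 hours, 5 concentrations, 96-well plates. Abbreviation: GI50, concentration required for 50% inhibition of growth. The concentration for full growth arrest is given as TGI.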
# Experiments:
# Assay in all cases: NCI-60 cell line screen, 48 h
# MALME-3M melanoma = system: MALME-3M melanoma
# PC-3 prostate = system: PC-3 prostate
# TK-10 renal = system: TK-10 renal
# KM12 colon = system: KM12 colon
# A498 renal = system: A498 renal
# DU-145 prostate = system: DU-145 prostate
# MOLT-4 leukemia = system: MOLT-4 leukemia
# SR leukemia = system: SR leukemia
# COLO 205 colon = system: COLO 205 colon
# MDA-MB-435 = system: MDA-MB-435
SMILES,GI50 (MALME-3M melanoma) [µM],TGI (MALME-3M melanoma) [µM],GI50 (PC-3 prostate) [µM],TGI (PC-3 prostate) [µM],GI50 (TK-10 renal) [µM],TGI (TK-10 renal) [µM],GI50 (KM12 colon) [µM],TGI (KM12 colon),GI50 (A498 renal) [µM],TGI (A498 renal),GI50 (DU-145 prostate) [µM],TGI (DU-145 prostate) [µM],GI50 (MOLT-4 leukemia) [µM],TGI (MOLT-4 leukemia) [µM],GI50 (SR leukemia) [µM],TGI (SR leukemia) [µM],GI50 (COLO 205 colon),TGI (COLO 205 colon) [µM],GI50 (MDA-MB-435) [µM],TGI (MDA-MB-435)
COc1ccc(/C=C(/C(=O)N2CCCC2)c2cc(OC)c(OC)c(OC)c2)cc1N,4.25,> 100,2.1,> 100,11.1,> 100,1.55,> 100 µM,1.26,> 100 µM,2.65,> 100,4.74,> 100,0.719,> 100,3.06 µM,11,,
CCOC(OCC)C(CC)[Se]c1ccccc1[N+](=O)[O-] (stereo not given),,> 100,,> 100,,> 100,,71.4 µM,,11.6 µM,,> 100,,> 86.7,,> 40.1,,8.92,,
O=C([O-])c1ccc2c(c1)-c1nc-2nc2[n-]c(nc3nc(nc4[n-]c(n1)c1ccc(C(=O)[O-])cc41)-c1cc(C(=O)[O-])ccc1-3)c1ccc(C(=O)[O-])cc21.[Fe+2],> 50,> 50,,,> 50,> 50,> 50,> 50 µM,> 50,> 50 µM,,,> 50,> 50,19,> 50,> 22.2 µM,> 31.2,,
N/N=C1\c2ccccc2C2/C(=N\N)c3ccccc3C12 (stereo not given),,> 100,,,,> 100,,> 100 µM,,,,,,> 100,,,,> 100,,
O=C1CC2CCCCC2=C1O (stereo not given),,> 100,,,,> 100,,> 100 µM,,> 100 µM,,,,> 100,,,,> 100,,
O=S(=O)(NC(=S)Nc1ccccc1)c1ccc(N2N=C3c4ccccc4CC3C2c2cccs2)cc1 (stereo not given),,,22.9,54.4,12.2,39.7,21.5,> 100 µM,,,17.8,41.5,17.5,> 100,,,41.9 µM,> 100,19.4,45.6 µM
COc1ccc(NC(=O)C(=O)NNC(=O)c2sc(NNC(C)=O)nc2C)c([N+](=O)[O-])c1,,> 100,,,,> 100,,> 100 µM,,> 100 µM,,,,85.1,,> 100,,> 100,,
CC1CCCC(C(O)CC2CC(=O)N(c3ccccc3)C(=O)C2)C1=O (stereo not given),,> 100,,,,> 100,,> 100 µM,,> 100 µM,,,,> 100,,> 100,,> 100,,
Cc1c(O)c(=O)ccn1C1OC(CO)C(O)C1O (stereo not given),,> 100,,,,> 100,,> 100 µM,,> 100 µM,,,,> 100,,> 100,,> 100,,
Cn1cc2c(n1)c(N/N=C/c1ccccc1)nn1nnnc21,,> 100,,,,> 100,,,,> 100 µM,,,,> 100,,> 100,,> 100,,
N#C/C(=C/c1cccnc1)C(=O)c1ccccc1,,> 100,,,,> 100,,> 100 µM,,,,,,> 100,,> 100,,> 100,,
COc1ccc2nc(NCCCNCCO)c3sc4ccc(F)cc4c(=O)c3c2c1,1.69,3.23,1.56,3.04,1.72,3.3,1.81,3.52 µM,1.53,2.98 µM,1.6,3.04,1.85,3.97,,,1.8 µM,3.77,1.66,3.1 µM
Cc1cc(N(CCC#N)CCC#N)ccc1/C=C(\NC(=O)/C=C/c1ccccc1)NC(=O)Nc1ccc(Cl)cc1,,> 100,,,,,,> 100 µM,,> 100 µM,,,,> 100,,,,> 100,,
CC[C@@]1(O)C(=O)OCc2c1cc1n(c2=O)Cc2cc3cc(OC)ccc3nc2-1,0.0257,0.548,,,,,0.273,2.58 µM and 1.54 µM,0.0272,1.8 µM and 0.307 µM,0.0219,0.041,0.0038,0.0289,0.00461,,0.419 µM and 0.143 µM,,0.117,0.247 µM and 0.333 µM
C/C(=N\NC(=O)CC(=O)Nc1ccc(Cl)cc1)c1cc2ccccc2oc1=O,,> 100,,,,> 100,,> 100 µM,,,,,,> 100,,,,> 100,,
N#C/C(=C\c1ccc(Br)cc1)n1nnc2cccc(F)c21,,,0.943,3.17,1.91,3.55,1.51,3.31 µM,2.04,4.23 µM,1.51,2.85,,,,,1.98 µM,5.02,0.295,0.913 µM
O=C1C(Cl)=C(Nc2ccc3cn[nH]c3c2)C(=O)c2ccccc21,0.666,1.95,1.17,2.44,3.79,8.06,3.23,14.7 µM,3.05,8.9 µM,1.17,2.39,1.47,4.15,,,1.42 µM,2.89,1.51,2.83 µM
CCCCCCCCCCCCCC/C(C(=O)OC)=C(/O)C(=O)OCC,,> 100,,,,> 100,,59.8 µM,,> 100 µM,,,,> 100,,,,> 100,,
N#Cc1c[nH]n2ccnc12,,,,> 100,,> 100,,> 100 µM,,> 100 µM,,> 100,,> 100,,> 100,,> 100,,
O=C1c2cccnc2-c2nc(/C=C/c3ccccc3)cc3c2c1nc1ccccc13,5.01,20.5,1.97,13.6,19.1,43.2,1.78,5.04 µM,3.88,10.5 µM,1.76,3.58,1.57,10.8,,,3.74 µM,16.7,1.86,3.37 µM
